This is an account of results in ChEMBL document CHEMBL1201862, “PubChem BioAssay data set” (2004).

Among the test systems are T47D; DU-145; NCI/ADR-RES; MDA-N; Hs-578T; HOP-92; MDA-MB-435; K562; RXF 393; MDA-MB-231; HT-29; SK-OV-3; SR; PC-3; TK-10; MCF7; BT-549; KM12; CAKI-1.
Test in all cases: NCI tumour cell line growth inhibition, 48 h

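Where inhibition never reached the appropriate level, the endpoint shown equals the highest concentration tested. Otherwise, values were interpolated linearly from a five-concentration, 48-hour dose response in 96-well plates. GI50 is the concentration that inhibits growth by half.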 Calls of active or inactive are those of the source. Cut-off read from the data, not from the text of the source: active = GI50 up to about 1.1 µM and inactive = higher.

For the compound `CN(C)C(=S)SCC(N)=O`, the GI50 in the test with T47D, in the test with DU-145, in the test with NCI/ADR-RES, in the test on MDA-N, in the test with Hs-578T and in the test on HOP-92 was > 100 µM (inactive) throughout. For the same compound, the GI50 with MDA-MB-435, with K562, in the test on RXF 393, in the test on MDA-MB-231, in the test on HT-29 and in the test with SK-OV-3 was > 100 µM (inactive) in each case. Besides, the GI50 in the test on SR, with PC-3, in the test with TK-10, with MCF7, in the test on BT-549 and with KM12 was > 100 µM (inactive) throughout. In addition, the GI50 in the test with CAKI-1 was > 100 µM (inactive).
With `O=C1/C(=C/c2cccs2)N=C(c2ccccc2)N1C1Nc2cc3c(cc2S1)NC(N1C(=O)/C(=C/c2cccs2)N=C1c1ccccc1)S3` (stereo not given), the GI50 was 51.8 µM (inactive) with T47D; 24.7 µM (inactive) with DU-145; 13.9 µM (inactive) in the test on NCI/ADR-RES; 18.6 µM (inactive) with MDA-N; 24.2 µM (inactive) in the test on Hs-578T; > 100 µM (inactive) with HOP-92. For the same compound, the GI50 was 17.7 µM (inactive) in the test with MDA-MB-435; 40.9 µM (inactive) in the test with K562; 23.3 µM (inactive) in the test with RXF 393; 30.2 µM (inactive) with MDA-MB-231; 25.3 µM (inactive) in the test with HT-29; 3.07 µM (inactive) with SR. In addition, the GI50 is 38.7 µM (inactive) in the test on PC-3; 41.5 µM (inactive) in the test on TK-10; 23 µM (inactive) in the test with MCF7; 18.1 µM (inactive) with BT-549; 32.8 µM (inactive) in the test with KM12; 48.6 µM (inactive) in the test on CAKI-1.
For the compound `Cc1ccc([N+](=O)[O-])cc1S(=O)(=O)Nc1ccc(C2=NN(c3ccc([N+](=O)[O-])cc3[N+](=O)[O-])C(c3ccccc3)C2)cc1` (stereo not given), the GI50 with T47D was 12.1 µM (inactive); with DU-145 it was 17.9 µM (inactive); in the test on NCI/ADR-RES it was 18.4 µM (inactive); in the test with MDA-N, 16 µM (inactive); with Hs-578T, 21.9 µM (inactive); in the test on HOP-92, 14.8 µM (inactive). The GI50 was 19.3 µM (inactive) in the test with MDA-MB-435; 16 µM (inactive) in the test on K562; 14.8 µM (inactive) in the test on RXF 393; 14.9 µM (inactive) in the test on MDA-MB-231; 16.1 µM (inactive) with HT-29; 21 µM (inactive) in the test on SK-OV-3. For the same compound, the GI50 in the test on SR is 22.4 µM (inactive); in the test on PC-3, 14.3 µM (inactive); with TK-10, 26.4 µM (inactive); with MCF7, 12.2 µM (inactive); in the test on BT-549, 17.2 µM (inactive); in the test with KM12, 18.3 µM (inactive). In addition, the GI50 in the test on CAKI-1 is 22.8 µM (inactive).
On to `N#Cc1c(Nc2ccc(F)cc2)[n+]([O-])c2ccc(Cl)cc2[n+]1[O-]`, for which the GI50 with T47D was 2.89 µM (inactive); in the test on DU-145, 11.8 µM (inactive); with NCI/ADR-RES it was 1.9 µM (inactive); in the test on MDA-N it was 6.73 µM (inactive); in the test on Hs-578T, 38.3 µM (inactive); in the test on HOP-92, 2.14 µM (inactive). Besides, the GI50 in the test with MDA-MB-435 is 4.04 µM (inactive); in the test with K562, 2.47 µM (inactive); in the test with RXF 393, 4.36 µM (inactive); in the test with MDA-MB-231, 2.66 µM (inactive); in the test on HT-29 it was 3.47 µM (inactive); with SK-OV-3, 4.06 µM (inactive). Further, the GI50 was 1.57 µM (inactive) in the test on SR; 4.81 µM (inactive) in the test on PC-3; 19.9 µM (inactive) in the test with TK-10; 2.11 µM (inactive) in the test on MCF7; 8.93 µM (inactive) with BT-549; 5.57 µM (inactive) with KM12. The GI50 in the test with CAKI-1 was 3.18 µM (inactive).
On to `Cc1ccc(S(=O)(=O)NN=C2CCCCCCCCCCC2)cc1`, for which the GI50 with T47D was > 100 µM (inactive); with DU-145, > 100 µM (inactive); in the test with NCI/ADR-RES, > 100 µM (inactive); with MDA-N, > 100 µM (inactive); in the test with Hs-578T, 35.7 µM (inactive); in the test on HOP-92, > 100 µM (inactive). The GI50 was > 100 µM (inactive) in the test on MDA-MB-435; > 100 µM (inactive) in the test on K562; 58.1 µM (inactive) with RXF 393; > 100 µM (inactive) in the test on MDA-MB-231; > 100 µM (inactive) in the test on HT-29; > 100 µM (inactive) with SK-OV-3. Moreover, the GI50 in the test with SR, in the test with PC-3, in the test on TK-10, in the test on MCF7, in the test with BT-549 and in the test with KM12 was > 100 µM (inactive) in each case. Besides, the GI50 in the test with CAKI-1 was > 100 µM (inactive).
In the case of `CC12CCC(O)CC1CCC1C2CCC2(C)C(C(=O)CC(O)C(F)(F)F)CCC12` (stereo not given), the GI50 with T47D is 20.2 µM (inactive); in the test on DU-145, > 87.5 µM (inactive); in the test on NCI/ADR-RES it was 24.9 µM (inactive); in the test on MDA-N, 61.1 µM (inactive); in the test with Hs-578T, 23.9 µM (inactive); with HOP-92, 31.8 µM (inactive). In addition, the GI50 is > 75 µM (inactive) in the test on MDA-MB-435; 3.8 µM (inactive) in the test on K562; 7.87 µM (inactive) in the test on RXF 393; 26.7 µM (inactive) with MDA-MB-231; 3.97 µM (inactive) with HT-29; 27 µM (inactive) in the test with SK-OV-3. Further, the GI50 with SR was 0.289 µM (active); in the test with PC-3, 30.6 µM (inactive); in the test with TK-10, 53.7 µM (inactive); with MCF7, 31.2 µM (inactive); in the test on BT-549 it was > 78.3 µM (inactive); with KM12 it was 17.1 µM (inactive). Besides, the GI50 with CAKI-1 was 21 µM (inactive).
Turning to `CC(C)(/N=N/C(C)(C)C(=O)NCCO)C(=O)NCCO`, the GI50 in the test with T47D, with DU-145, in the test with NCI/ADR-RES, in the test with MDA-N, in the test with Hs-578T and in the test with HOP-92 was > 100 µM (inactive) throughout. Moreover, the GI50 in the test with MDA-MB-435, in the test on K562, in the test with RXF 393, with MDA-MB-231, in the test on HT-29 and in the test on SK-OV-3 was > 100 µM (inactive) in each case. Also, the GI50 in the test on SR, with PC-3, in the test with TK-10, with MCF7, with BT-549 and in the test on KM12 was > 100 µM (inactive) each time. In addition, the GI50 in the test with CAKI-1 was > 100 µM (inactive).
On to `CC1(C)Oc2ccccc2OC1O` (stereo not given), for which the GI50 in the test on T47D, in the test with DU-145, in the test on NCI/ADR-RES, with MDA-N, in the test on Hs-578T and in the test with HOP-92 was > 100 µM (inactive) throughout. Also, the GI50 with MDA-MB-435, in the test on K562, with RXF 393, with MDA-MB-231, with HT-29 and in the test on SK-OV-3 was > 100 µM (inactive) each time. For the same compound, the GI50 in the test on SR, in the test with PC-3, with TK-10, in the test with MCF7, in the test on BT-549 and in the test with KM12 was > 100 µM (inactive) in each case. Besides, the GI50 in the test with CAKI-1 was > 100 µM (inactive).
With `O=C(O)c1ccccc1-c1ccccc1C(=O)Nc1ccc2c(c1)Cc1cc(F)ccc1-2`, the GI50 is 22.1 µM (inactive) in the test on T47D; 33.6 µM (inactive) with DU-145; 36.5 µM (inactive) with NCI/ADR-RES; 23.6 µM (inactive) with MDA-N; 54.8 µM (inactive) in the test on Hs-578T; 37.9 µM (inactive) in the test on HOP-92. The GI50 with MDA-MB-435 was 32.5 µM (inactive); in the test with RXF 393 it was 32.2 µM (inactive); with MDA-MB-231, 26.3 µM (inactive); with HT-29 it was 22.8 µM (inactive); with SK-OV-3 it was 31.3 µM (inactive); in the test with SR, 18 µM (inactive). In addition, the GI50 is 26.4 µM (inactive) in the test with PC-3; 28.9 µM (inactive) in the test on TK-10; 27.5 µM (inactive) in the test on MCF7; 18.9 µM (inactive) in the test on BT-549; 24.5 µM (inactive) in the test on KM12; 30.4 µM (inactive) with CAKI-1.
Consider `O=C1CSC(c2ccc(Cl)cc2Cl)N1c1ccc(Oc2ccc(Cl)cc2)c(Cl)c1` (stereo not given), for which the GI50 was 23.4 µM (inactive) in the test on T47D; 32.1 µM (inactive) in the test with DU-145; 21.6 µM (inactive) with NCI/ADR-RES; 21.7 µM (inactive) in the test with MDA-N; 14.7 µM (inactive) in the test on Hs-578T; 21.8 µM (inactive) with HOP-92. Moreover, the GI50 is 12.6 µM (inactive) in the test with MDA-MB-435; 26.2 µM (inactive) in the test with K562; 19.4 µM (inactive) in the test with MDA-MB-231; 16.4 µM (inactive) in the test on HT-29; 30.7 µM (inactive) in the test on SK-OV-3; 16.3 µM (inactive) in the test on SR. The GI50 is 27.8 µM (inactive) with PC-3; 51.4 µM (inactive) in the test on TK-10; 33.2 µM (inactive) with MCF7; 22.2 µM (inactive) with BT-549; 20.2 µM (inactive) with KM12; 22.4 µM (inactive) with CAKI-1.
`O=C(CC(=O)Nc1ccc(C(=O)O)cc1)Nc1ccc(C(=O)O)cc1`: the GI50 with T47D was 49.5 µM (inactive); with DU-145 it was > 100 µM (inactive); in the test on NCI/ADR-RES it was > 100 µM (inactive); in the test with MDA-N it was > 100 µM (inactive); with Hs-578T, > 100 µM (inactive); in the test on HOP-92, > 100 µM (inactive). In addition, the GI50 with MDA-MB-435, in the test on K562, in the test with MDA-MB-231, with HT-29, with SK-OV-3 and in the test with SR was > 100 µM (inactive) in each case. In addition, the GI50 in the test on PC-3, with TK-10, in the test with MCF7, in the test with BT-549, with KM12 and with CAKI-1 was > 100 µM (inactive) each time.
